# How the values were obtained:
# Type in all cases: cell-based
# 3T1-L1 adipocytes = experiment: glucose uptake (glucose transport) in differentiated adipocytes; conditions: 10 μM, FIG. 13
# Experimental: 3T1-L1 adipocytes (ATCC) were purchased, and 10% bovine calf serum (Hyclone) and 1% penicillin/streptomycin (Sigma) were added to a Dulbecco's Modified Eagle's Medium (Sigma) and cultured in a 5% CO2 culture medium. In order to differentiate preadipocyte cells into adipocytes, a culture plate was filled with cells and cultured for 48 hours. The cells were then replaced in a DMEM medium to which 10% fetal bovine serum (FBS) (Hyclone), 0.5 mM 3-isobutyl-1-methylxanthine (Sigma), 1 μM dexamethasone (Sigma), 5 μg/ml insulin (Sigma), and 1% penicillin/streptomycin were added and cultured for another 48 hours. Thereafter, the cells were further cultured for 14 days while being replaced in a medium containing 10% FBS, 5 μg/ml insulin, and 1% penicillin/streptomycin at two-day intervals to obtain fully differentiated adipocytes. […] As a positive control for measuring glucose uptake in blood, Metformin (Sigma; 10 μM), which is used as a diabetic therapeutic agent, was used, and novel ginsenoside GS #10, which is an example of the present disclosure, isolated from Ginseng seed extract and ginsenosides GS #01-GS #06, which are comparative examples of the present disclosure, were treated with 10 μM each. In addition, both insulin-dependent/independent glucose transport capacity was measured by treating insulin together, which may promote glucose uptake.
# [1] = test system: SREBP1c (sterol-regulatory element binding protein 1c); experiment: SREBP1c gene expression in HepG2 (qPCR); conditions: 24 hours
# Experimental: The hepatocyte cell line HepG2 purchased from the International Center for Biological Resources (ATCC) were placed in Dulbecco's Modified Eagle's Medium (Sigma) to which 10% fetal bovine serum (Hyclone) and 1% penicillin/streptomycin (Sigma) were added, and cultured in a 5% CO2 incubator. […] After 24 hours of treatment, cells were collected, RNA was extracted using Trizol™ reagent (Thermo Fisher Scientific), and cDNA was synthesized using RevertAid™ 1st strand cDNA synthesis kit (Thermo Fisher Scientific). Bio-Rad's CFX96 real-time quantitative PCR (qPCR) instrument was used to observe the expression of the genes SREBP1c (sterol-regulatory element binding protein 1c), ACC (acetyl-CoA carboxylase) and FAS (Fatty acid synthase), which induces fat synthesis or accumulation.
# pancreatic lipase = pancreatic lipase activity inhibition (Pancreatic Lipase Activity Assay Kit)
# Experimental: The hepatocyte cell line HepG2 purchased from the International Center for Biological Resources (ATCC) were placed in Dulbecco's Modified Eagle's Medium (Sigma) to which 10% fetal bovine serum (Hyclone) and 1% penicillin/streptomycin (Sigma) were added, and cultured in a 5% CO2 incubator. As a positive control for the cells, Xenical (Sigma), which are used as pancreatic lipase inhibitors and anti-obesity therapeutic agents, and seven types of ginsenosides (GS #01-GS #06, GS #10; 10 μM each) extracted from Ginseng seed were treated for 1 hour. In addition, Pancreatic Lipase Activity Assay Kit (Abcam) was used to observe the inhibition of each lipase activity.
# LDL receptor (LDLR) = experiment: LDL receptor gene expression in HepG2 (qPCR); conditions: 24 hours
# [2] = test system: aP2 (Adipocyte protein 2); experiment: aP2 adipocyte marker gene expression (qPCR)
# Experimental: The adipocyte cell 3T3-L1 purchased from the International Center for Biological Resources (ATCC) were placed in Dulbecco's Modified Eagle's Medium (Sigma) to which 10% fetal bovine serum (Hyclone) and 1% penicillin/streptomycin (Sigma) were added, and cultured in a 5% CO2 incubator. In order to differentiate preadipocytes into adipocytes, the cells were filled in a culture plate and cultured. After 48 hours, the cells were replaced with Dulbecco's modified eagle medium (DMEM) to which 10% of fetal bovine serum (Hyclone), 0.5 mM of 3-isobutyl-1-methylxanthine (Sigma), 1 μM of dexamethasone (Sigma), 5 μg/ml of insulin (Sigma), 1% of penicillin/streptomycin (Sigma) were added and further cultured for 48 hours. During 48 hours of culture, seven types of ginsenoside reagents (GS #01-GS #06, GS #10) extracted from Ginseng seeds were treated at 10 μM each to affect adipocyte differentiation. […]
# After the differentiation of adipocytes in the same manner as above, the expressions of PPARγ (Peroxisome proliferator-activated receptor gamma), aP2 (Adipocyte protein 2) and CD36 were observed as adipocyte marker genes. […] Bio-Rad's CFX96 real-time quantitative PCR (qPCR) instrument was used to quantify the expression levels of each gene. […]
# [3] = test system: human umbilical vein endothelial cells (HUVECs); experiment: survival rate of vascular endothelial cells (MTT)
# Experimental: In this experiment, it was confirmed whether the novel ginsenoside GS #10 of an embodiment of the present disclosure can increase the survival rate of vascular endothelial cells. Specifically, human umbilical vein endothelial cells (HUVECs) were purchased from the International Center for Biological Resources (ATCC) and cultured, and then the novel ginsenoside GS #10 was treated at a concentration of 1-10 μg/ml and MTT(3-(4,5-dimethylthiazol-2-yl)-2,5-diphenyltetrazolium bromide) analysis was performed to observe cell death.
smiles,measurement,setting,value
"CC1(C)C(=O)CC[C@@]2(C)C1[C@@H](O[C@H]1OC(CO)[C@H](O)C(O)C1O[C@H]1OC(CO)[C@H](O)C(O)C1O)C[C@]1(C)C2C[C@@H](O)C2C([C@]3(C)CC[C@H](C(C)(C)O)O3)CC[C@]21C (stereo partly drawn) [GS #10, (20S,24R)-6-O-β-D-glucopyranosyl(1→2)-β-D-glucopyranoside-dammar-3-one-20,24-epoxy-6a,12b,25-triol]",glucose transport promotion,3T1-L1 adipocytes; combined with insulin (+insulin),the glucose transport is further increased as compared with the insulin-only treatment group
same,glucose transport promotion,3T1-L1 adipocytes; material-only treatment (−insulin),statistically significant glucose transport promotion
same,SREBP1c expression inhibitory effect,"[1]; 10 μM, HepG2, FIG. 18",significantly higher expression inhibitory effect
same,SREBP1c expression inhibitory effect,"[1]; 1, 10 μM, compared with Rg1, Rg3, Rb1, FIG. 23",far superior in lipid metabolism inhibitory effect
same,lipase activity inhibitory effect relative to that of the conventional ginsenoside,"pancreatic lipase; 10 μM, 1 hour, FIG. 22",≥ 2 times
same,pancreatic lipase activity inhibitory effect,"pancreatic lipase; 10 μM, 1 hour, FIG. 22",the best
same,pancreatic lipase activity inhibition,"pancreatic lipase; 1, 10 μM, compared with Rg1, Rg3, Rb1, FIG. 27",far superior in lipid metabolism inhibitory effect
same,increase of LDLR expression level compared to the control (−),"LDL receptor (LDLR); 10 μM, HepG2, FIG. 29",more than 2 times
same,promotion of intracellular transport (LDLR expression),"LDL receptor (LDLR); 1 and 10 μM, compared with Rg1, Rg3, Rb1, FIG. 32",most effective in inhibiting cholesterol synthesis and promoting intracellular transport
same,"adipocyte differentiation inhibition, aP2 gene expression","[2]; 1 μM and 10 μM, compared with Rg1, Rg3, Rb1, FIG. 40",far superior in adipocyte differentiation inhibition
same,"adipocyte differentiation inhibition, aP2 gene expression","[2]; 10 μM, FIG. 36",more effective in inhibiting the adipocyte differentiation
same,survival rate-increasing effect of vascular endothelial cells,"[3]; 10 μg/ml, MTT, compared with GS #01-GS #06, FIG. 45",highest survival rate-increasing effect of vascular endothelial cells
same,increased survival rate of vascular endothelial cells (HUVEC),"[3]; 10 μg/ml, compared with Rg1, Rg3, Rb1, FIG. 47",far superior
same,survival rate of HUVEC,"[3]; 1-10 μg/ml, MTT, FIG. 44",increase the survival rate of HUVEC regardless of the concentration
